# Reference: ChEMBL document CHEMBL1201862, “PubChem BioAssay data set” (2004)
#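 Growth conditions: 96-well plates. Treatment: test compound, 48 hours, 5 concentrations. Analysis: linear interpolation between bracketing concentrations; unreached endpoints set to highest concentration. GI50: concentration for 50% inhibition of growth.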 Active and inactive are the calls of the source. Cut-off read from the data, not from the text of the source: active = GI50 up to about 1.1 µM and inactive = higher.
# Key:
# Assay in all cases: DTP human tumour cell line panel, 48 h
# [1] = tested on: NCI-H226
# [2] = tested on: CCRF-CEM
# [3] = tested on: SW-620
# [4] = tested on: LOX IMVI
# [5] = tested on: A549
# [6] = tested on: SR
# [7] = tested on: RXF 393
# [8] = tested on: NCI-H522
# [9] = tested on: U-251
# [10] = tested on: 786-0
# [11] = tested on: CAKI-1
# [12] = tested on: SNB-19
# [13] = tested on: HOP-62
# [14] = tested on: SK-MEL-5
# [15] = tested on: OVCAR-5
# [16] = tested on: OVCAR-3
# [17] = tested on: OVCAR-4
# [18] = tested on: HCT-15
Compound,GI50 [1],GI50 [2],GI50 [3],GI50 [4],GI50 [5],GI50 [6],GI50 [7],GI50 [8],GI50 [9],GI50 [10],GI50 [11],GI50 [12],GI50 [13],GI50 [14],GI50 [15],GI50 [16],GI50 [17],GI50 [18] [µM]
COc1cc(/C=C2\[C@H]3c4c(c(OC)c(C)c(OC)c4OC)CC(C(=O)N2Cc2ccccc2)N3C)c(OC)c(C)c1OC,10.4 µM (inactive),19.1 µM (inactive),22.2 µM (inactive),18.4 µM (inactive),> 100 µM (inactive),21.2 µM (inactive),> 100 µM (inactive),13.1 µM (inactive),19.5 µM (inactive),18.1 µM (inactive),30.3 µM (inactive),27.2 µM (inactive),19.5 µM (inactive),19 µM (inactive),20.6 µM (inactive),16.7 µM (inactive),16.1 µM (inactive),
CCOC(=O)CNC(=O)OCc1ccccc1,,> 100 µM (inactive),> 100 µM (inactive),> 100 µM (inactive),> 100 µM (inactive),,,> 100 µM (inactive),> 100 µM (inactive),> 100 µM (inactive),> 100 µM (inactive),> 100 µM (inactive),> 100 µM (inactive),,> 100 µM (inactive),> 100 µM (inactive),,> 100
COC(=O)CC1NC(=O)C1C(C)(OC)OC (stereo unspecified),> 100 µM (inactive),> 100 µM (inactive),> 100 µM (inactive),> 100 µM (inactive),> 100 µM (inactive),> 100 µM (inactive),> 100 µM (inactive),,> 100 µM (inactive),> 100 µM (inactive),,> 100 µM (inactive),> 100 µM (inactive),> 100 µM (inactive),,> 100 µM (inactive),> 100 µM (inactive),> 100
O=C(O)CCCNS(=O)(=O)c1ccccc1,> 100 µM (inactive),> 100 µM (inactive),> 100 µM (inactive),> 100 µM (inactive),> 100 µM (inactive),,> 100 µM (inactive),> 100 µM (inactive),> 100 µM (inactive),> 100 µM (inactive),> 100 µM (inactive),> 100 µM (inactive),,> 100 µM (inactive),> 100 µM (inactive),> 100 µM (inactive),> 100 µM (inactive),> 100
CC(=O)Nc1ccc(C(=O)N2N=C(C)/C(=C/c3cccc([N+](=O)[O-])c3)C2=O)cc1,> 100 µM (inactive),> 100 µM (inactive),> 100 µM (inactive),> 100 µM (inactive),> 100 µM (inactive),> 100 µM (inactive),,> 100 µM (inactive),,> 100 µM (inactive),> 100 µM (inactive),> 100 µM (inactive),> 100 µM (inactive),> 100 µM (inactive),> 100 µM (inactive),> 100 µM (inactive),> 100 µM (inactive),
